According to patent US20110281726A1, “GLEDITSIA AMORPHOIDES SEEDLESS POD EXTRACT AND ITS USE AS AN AGRICULTURAL ADJUVANT” (IDEASUPPLY.COM ARGENTINA S.A., priority 2005, published 2011):

What was measured:
Type in all cases: in vivo
[1] = system: leafmining moth (Phyllocnistis Citrella Stainton); experiment: Control of leafmining moth: injection into tunnels and application on foliar surface
From the text: Efficacy of “avemectin” and the CU co-adjuvant of the invention to control leafmining moth (Phyllocnistis Citrella Stainton.)
Two assays were designed in order to assess the effect of two concentrations of the Coronillo Ultra surfactant and combinations of both products to control leafmining moth in citrus (Phyllocnistis Citrella Stainton.)
One of the assays was geared to testing the action of the direct contact of the products, both pure and in mixtures, with the larvae of the second and third stages by injecting the solution into the tunnels. The second assay aimed at assessing the effect of its application on the foliar surface affected with tunnels. In both assays, methylene blue dye was used as tracer to assess the flow of the solution inside the tunnel and the larvae.
In the treatments applied over the foliar surface, effects were noticed only when the active penetrated the epidermis and came into contact with the insect inside the tunnel.

[2] = system: leafmining moth (Phyllocnistis Citrella Stainton); experiment: Control of leafmining moth: field test in a five-year vegetable garden
Protocol: Finally, the above treatments were tested on the field, in a five-year vegetable garden.

[3] = system: alfalfa (Medicago Sativa L.); experiment: Influence of CU co-adjuvant on the activity of defoliant Paraquat in alfalfa; conditions: Paraquat 1 l/ha, CU 0.25% v/v, emulsion oil 1% v/v, five days after treatment, day-night temperatures 30/21° C.
Protocol: Another application with agrochemicals was conducted by assessing the influence of the “CU” co-adjuvant of the invention on the activity of defoliant “Paraquat” in alfalfa (Medicago Sativa L.)
For such purpose, the effect of the addition of the surfactant Coronillo Ultra (CU) at 0.25% v/v and emulsion oil at 1% v/v to defoliant Paraquat at a 1 l/ha concentration, in conditions of high and low temperatures during both the day and at night on alfalfa was assessed.

Molecule | effect of avemectin applied over the foliar surface ([1]; high concentrations) | effect of avemectin when injected ([1]; low doses) | control percentage after 14 days [2] | defoliation [3] [%]
avemectin | effective | same effect | low control percentage | 
C[n+]1ccc(-c2cc[n+](C)cc2)cc1 [Paraquat] |  |  |  | 17
